Reference: paper PMC7093416, “Selective USP7 inhibition elicits cancer cell killing through a p53-dependent mechanism” (Scientific Reports, 2020)

Assays:
[1] = tested on: MCF7 cells; experiment: Cell cycle analysis by propidium iodide staining; type: cell-based; conditions: 1 μM, 24 hours
Protocol: For propidium iodide (PI) staining, treated cells (~1 million per condition) were washed with cold PBS, then fixed in 80% ethanol overnight at −20 °C. After fixing, cells were pelleted, washed with PBS, and reconstituted in 500 μL FxCycle PI / RNAse A staining solution (Thermo Fisher). Cells were stored overnight at 4 °C and analyzed using a BD Fortessa flow cytometer.

[2] = tested on: p53 target genes; experiment: Quantitative real-time PCR of p53 target genes in MCF7 cells; type: cell-based; conditions: 1 μM, 24 hours
Protocol: After cell treatment under the indicated conditions, total cellular RNA was purified using a Qiagen RNEasy kit. 1 μg of RNA was then converted to cDNA using SuperScript III First-Strand Synthesis (Invitrogen). cDNA from each sample was then combined with the indicated TaqMan probe and 2x MasterMix in a 96-well Fast RT-PCR plate (Invitrogen). qPCR was performed on an Invitrogen 7500 Fast qPCR instrument and gene expression was calculated using the 2^-∆∆Ct method on Graphpad Prism.

[3] = target: T1, USP7 C223A catalytic domain (Homo sapiens, UniProt Q93009, C223A); experiment: Intact MS labeling of USP7 C223A catalytic domain; type: binding; conditions: 2.5-fold molar excess, 2 hours
T1 construct: catalytic domain (208–560) used were cloned as described; inferred from Ni-NTA purification; made in house; host or cells: E. coli BL21 (DE3)
T1 sequence (Q93009 208-560 C223A): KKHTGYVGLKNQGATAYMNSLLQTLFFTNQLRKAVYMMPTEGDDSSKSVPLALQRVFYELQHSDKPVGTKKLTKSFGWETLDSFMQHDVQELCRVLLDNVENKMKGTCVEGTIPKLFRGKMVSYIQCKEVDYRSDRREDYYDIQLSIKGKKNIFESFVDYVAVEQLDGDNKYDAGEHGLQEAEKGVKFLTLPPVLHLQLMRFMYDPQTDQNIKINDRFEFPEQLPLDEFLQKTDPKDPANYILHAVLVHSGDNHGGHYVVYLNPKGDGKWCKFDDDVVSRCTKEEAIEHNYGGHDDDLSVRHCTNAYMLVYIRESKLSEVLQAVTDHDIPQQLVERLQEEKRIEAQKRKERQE
Protocol: The constructs encoding USP7 full length (amino acids 1–1102) and catalytic domain (208–560) used were cloned as described. Both constructs were overexpressed in E. coli BL21 (DE3). Cells were grown at 37 °C to an OD of 0.9, cooled to 16 °C, induced with 500 μM isopropyl-1-thio-D-galactopyranoside (IPTG), incubated overnight at 16 °C, collected by centrifugation, and stored at −80 °C. Cell pellets were sonicated in lysis buffer (25 mM Tris pH 8, 1 M NaCl, and 10 mM BME) supplemented with 10 μg/ml phenylmethanesulfonylfluoride (PMSF) and the resulting lysate was centrifuged at 30,000 xg for 40 min. Ni-NTA beads (Qiagen) were mixed with lysate supernatant for 2 hours, and washed with lysis buffer supplemented with 25 mM imidazole. The bound protein was eluted with lysis buffer supplemented with 300 mM imidazole. […]
Figure S1: Full-length recombinant purified USP7 was pre-incubated with XL041 at the indicated concentrations for the indicated times, then Ub-AMC was added and fluorescence was monitored. […]
Figure S5: MCF7 cells were transfected with the indicated pcDNA constructs for 48 hours, then treated with XL177A at the indicated concentration for 3 hours. Cells were lysed, and FLAG-USP7 target engagement was assessed with the DUB ABP HA-Ub-VS. Densitometry was performed using ImageStudio software and analyzed using Graphpad Prism. […]

[4] = target: T2, USP7-F291N (Homo sapiens, UniProt Q93009, F291N); experiment: Ub-AMC enzymatic assay, USP7-F291N mutant; type: biochemical; conditions: 6-hr pre-incubation
T2 construct: made in house
T2 sequence (Q93009 whole entry F291N): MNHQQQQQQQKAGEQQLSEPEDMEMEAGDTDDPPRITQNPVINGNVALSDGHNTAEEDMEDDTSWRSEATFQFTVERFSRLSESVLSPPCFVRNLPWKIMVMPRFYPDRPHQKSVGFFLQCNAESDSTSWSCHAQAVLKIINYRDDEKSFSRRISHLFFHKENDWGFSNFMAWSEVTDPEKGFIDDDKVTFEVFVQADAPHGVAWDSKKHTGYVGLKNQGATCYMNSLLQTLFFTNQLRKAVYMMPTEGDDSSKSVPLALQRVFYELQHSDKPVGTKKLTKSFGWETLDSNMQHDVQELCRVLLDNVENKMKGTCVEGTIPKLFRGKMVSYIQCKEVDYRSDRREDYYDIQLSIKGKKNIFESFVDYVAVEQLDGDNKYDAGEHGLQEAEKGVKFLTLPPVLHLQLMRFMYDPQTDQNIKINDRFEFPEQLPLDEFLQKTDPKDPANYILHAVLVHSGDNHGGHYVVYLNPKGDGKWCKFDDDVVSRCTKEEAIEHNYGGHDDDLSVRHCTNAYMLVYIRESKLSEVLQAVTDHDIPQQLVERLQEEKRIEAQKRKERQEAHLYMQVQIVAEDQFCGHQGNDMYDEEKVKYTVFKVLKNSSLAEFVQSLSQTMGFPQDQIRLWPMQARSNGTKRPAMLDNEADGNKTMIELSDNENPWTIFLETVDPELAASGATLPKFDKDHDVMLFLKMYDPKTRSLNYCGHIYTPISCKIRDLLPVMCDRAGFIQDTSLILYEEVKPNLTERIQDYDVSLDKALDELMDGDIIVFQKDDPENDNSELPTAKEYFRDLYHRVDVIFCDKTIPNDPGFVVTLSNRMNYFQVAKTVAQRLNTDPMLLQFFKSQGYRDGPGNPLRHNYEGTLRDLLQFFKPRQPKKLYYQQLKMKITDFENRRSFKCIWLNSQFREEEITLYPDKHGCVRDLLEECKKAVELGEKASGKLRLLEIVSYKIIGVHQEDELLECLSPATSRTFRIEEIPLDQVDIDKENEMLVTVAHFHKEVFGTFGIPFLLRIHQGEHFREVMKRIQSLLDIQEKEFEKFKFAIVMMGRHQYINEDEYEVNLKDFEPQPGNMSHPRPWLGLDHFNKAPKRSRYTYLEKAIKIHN

CN1CCN(CCC(=O)Nc2ccc3c(=O)n(CC4(O)CCN(C(=O)[C@@H](CCCNC(=O)c5ccc6c(Cl)c7c(nc6c5)CCCC7)Cc5ccccc5)CC4)cnc3c2)CC1 [XL177A]
cell cycle effect [1]: complete G1 arrest | transcription of p53 target genes (CDKN1A, GADD45A, BAX, DDB2) [2]: stimulating transcription of p53 target genes | mass shift with USP7 C223A [3]: no mass shift was detected | IC50 [4]: 629 nM
